Laboratory results published in US20050002885A1, “Topical compositions and methods for treating pseudofolliculitis barbae and ingrown hair” (priority 1993, published 2005).

Legend:
[1] = saturation concentration of acetylsalicylic acid in the solvent mixture; format: physicochemical; conditions: solvent mixture: propylene glycol about 10 percent by volume, glycerine about 2 percent by volume, balance isopropyl alcohol/water with isopropyl alcohol about 70 percent by volume
[2] = cited from earlier work

Structure (SMILES): CC(=O)Oc1ccccc1C(=O)O [acetylsalicylic acid]
- saturation concentration of the acetylsalicylic acid in this solvent mixture [1]: about 18 percent by weight per unit volume
- solubility in water or water based substances [2]: virtually insoluble
